Literature values as cited in patent US20020022024A1, “Hemoglobinase inhibitors and methods of use” (priority 2000, published 2002).

Experiments:
schistosomules = conditions: added to culture media, in comparison to controls; Zerda et al. 1988
[1] = biological target: T1, S. mansoni cathepsin B, Sm31 (Schistosoma mansoni, UniProt P25792); conditions: short synthetic substrate; Klinkert et al. 1994
T1 sequence (P25792 89-340): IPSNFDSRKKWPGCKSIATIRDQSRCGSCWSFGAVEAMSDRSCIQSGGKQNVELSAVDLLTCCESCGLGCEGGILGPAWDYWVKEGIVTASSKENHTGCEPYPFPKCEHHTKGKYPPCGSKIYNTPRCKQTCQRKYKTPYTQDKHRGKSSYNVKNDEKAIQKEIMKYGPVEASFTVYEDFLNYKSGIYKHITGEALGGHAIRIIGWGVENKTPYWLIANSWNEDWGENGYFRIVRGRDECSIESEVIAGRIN

In the case of `CC(C)C[C@H](NC(=O)[C@H]1O[C@@H]1C(=O)O)C(=O)NCCCCN` [EP459], the “death rate of schistosomules” value (schistosomules) is listed as “increased the death rate of schistosomules”.

For `CSCCC(NC(=O)C(Cc1c[nH]c2ccccc12)NC(=O)OCc1ccccc1)C(=O)C=[N+]=[N-]` (stereo not drawn) [Z-Trp-Met-CHN2], the “inhibitor potency on Sm31 relative to a derivative of E64” value [1] is given as “more potent inhibitor of Sm31”.
